According to patent US6900019B1, “In-situ cell extraction and assay method” (Amersham Biosciences UK Limited, priority 1997, dated 2005):
Values joined by “and” are separate entries in the source; they are usually repeats but may differ in a detail not shown here. Equal entries are not always repeated. Values belong to the compound of their own block, whether it stands above or below them.

Experiments:
[1] = system: rabbit anti-cAMP sera (antigen:antibody binding); assay: Scintillation proximity radioimmunoassay for cAMP: standard curves with lysis reagents and sequestrants
Protocol: All assays were carried out in microtitre plates compatible with a microtitre plate beta scintillation counter. Standards (50 μl; 0.2-12.8 pmol/well), antisera (50 μl; at 1:11000 dilution), tracer (50 ul; 10000-20000 cpm) are added to anti-rabbit coated SPA beads (50 μl; 20 mg/ml). Non-specific binding was determined in the absence of specific rabbit antisera. SPA anti-rabbit reagent is placed onto a magnetic stirrer to ensure a homogeneous suspension before pipetting. All wells contained a total volume of 200 μl. The plates were sealed and incubated at room temperature (15-30° C.) for 15-20 hours. The amount of [^125I]cAMP bound to the SPA fluomicrospheres was determined by counting in a microtitre plate beta scintillation counter for 2 minutes.
Experiments were set up with:— • a) Working standards (4-256 pmol/ml; 0.2-12.8 pmol/well) were prepared in assay buffer (0.05M sodium acetate buffer containing 0.01% sodium azide) only (control) or assay buffer containing lysis reagent (e.g. DTAB, CPC or SDS; see experiment 1) at various concentrations. • b) Rabbit anti-cAMP sera prepared in assay buffer only (control) or assay buffer containing sequestrating agent at various concentrations depending on the experiment. • c) Radioactive tracer: adenosine 3′ 5′-cyclic phosphoric acid 2′-O-succinyl-3-[^125I] iodotyrosine methyl ester prepared in assay buffer only (control) or assay buffer containing sequestrating agent at various concentrations depending on the experiment. • d) Donkey anti-rabbit IgG coupled to scintillation proximity fluomicrospheres prepared in assay buffer only (control) or assay buffer containing sequestrating agent at various concentrations depending on the experiment. Experiment 1: Inhibition of Antigen and Antibody Binding by Several Lysis Reagents Method
In these experiments, standard curves were prepared for cAMP using the SPA immunoassay technique, described above, where working standards of cAMP were prepared in several lysis reagents at 1% (w/v) or 2% (w/v) final concentration. The detergents investigated included dodecyl trimethyl ammonium bromide (DTAB; Sigma Chemical Co. D8638), benzethonium chloride (BZC; Aldrich; B470-8), cetyl pyridinium chloride (CPC; Sigma Chemical Co; C9002), sodium dodecyl sulphate (SDS, Sigma chemical Co; L4509) and N-dodecyl-N,N-dimethyl-3-ammonio-1-propanesulphonate (DDAPS; Sigma Chemical Co.; D4516).
In these experiments, standard curves for cAMP were prepared using the SPA immunoassay technique described above, where working standards of cAMP were prepared in 1% (w/v), 1.5% (w/v) or 2% (w/v) lysis reagents (DTAB, SDS or CPC). The control consisted of no lysis reagent or cyclodextrin added. The effect including 2.5% (w/v) alpha-cyclodextrin (alpha-CD) (Sigma Chemical Co.; C4642) on antigen:antibody binding was investigated. Here, tracer, antisera and SPA beads were prepared in assay buffer containing 2.5% (w/v) alpha-CD. A second control tested the effect of 2.5% (w/v) alpha-CD on the standard curve without addition of lysis reagent.
In this experiment, standard curves for cAMP were prepared using the SPA radioimmunoassay where working standards of cAMP were prepared in 1% (w/v) DTAB. The effect of including 1% (w/v), 2% (w/v), 2.5% (w/v) and 5% (w/v) alpha-cyclodextrin on antigen:antibody binding was investigated. Here, tracer, antisera and SPA beads were prepared in assay buffer containing alpha-CD at the above concentrations. The control consisted of no lysis or cyclodextrin added to the assay.
In this experiment, standard curves for cAMP were prepared using the SPA immunoassay technique where working standards were prepared 1% (wt) lysis reagent (DTAB). The effect of including 2.5% (w/v) alpha-cyclodextrin (CD) 2.5% (w/v) beta-cyclodextrin (beta-CD) (Sigma is Chemical Co.; C4767) and 2.5% (w/v) gamma-cyclodextrin (gamma-CD) (Sigma Chemical Co.; 4892) on antigen:antibody binding was investigated. […]

[2] = system: binding protein prepared from bovine adrenal cortex; assay: Radioreceptor binding assay for D-myo-inositol 1,4,5-trisphosphate (IP3) with lysis reagent and sequestrant; details: 0.5% w/v DTAB in standards
Protocol: Bovine adrenal glands were removed from animals and stored at −20° C. before preparing the binding protein. The cortex was dissected from the adrenal glands, homogenised in NaHCO3 (20 mM) with dithiothreitol (1 mM), and the homogenate centrifuged at 5000 g for 15 minutes. The supernatant was centrifuged at 35000 g for 20 minutes, the resulting pellet resuspended in the homogenisation buffer and centrifuged again at 35000 g for 20 minutes. The final pellet was resuspended in homogenisaton buffer at a protein concentration of between 20-40 mg/ml.
For the assay, aliquots (100 μl) of the bovine adrenal cortex microsome preparation were incubated in 100 μl of 0.1M Tris buffer (pH9.0), containing 4 mM EDTA and 4 mg/ml bovine serum albumin. Incubations were carried out for 15 minutes in a final volume of 0.4 ml with [^3H] inositol 1,4,5-trisphosphate (100 μl; 6000 cpm) sample or standard (100 μl; 0.19-25 pmol inositol 1,4,5-trisphosphate/assay tube). Non-specific binding was determined in the presence of 1 nmol inositol 1,4,5-trisphosphate/tube. Incubations were terminated by centrifugation (12000 g) (10 minutes at 4° C.) and removal of the supernatant by gentle decantation. Particulate bound radioactivity was analysed, after suspension in 0.15M sodium hydroxide followed by neutralisation with 10% acetic acid, by liquid scintillation counting […]

- binding of [3H]IP3 to the receptor preparation ([2]; alpha-cyclodextrin 2% final w/v in tracer and adrenal cortex preparation): Binding was restored
SMILES: OC[C@H]1O[C@@H]2O[C@H]3[C@H](O)[C@@H](O)[C@@H](O[C@H]4[C@H](O)[C@@H](O)[C@@H](O[C@H]5[C@H](O)[C@@H](O)[C@@H](O[C@H]6[C@H](O)[C@@H](O)[C@@H](O[C@H]7[C@H](O)[C@@H](O)[C@@H](O[C@H]1[C@H](O)[C@H]2O)O[C@@H]7CO)O[C@@H]6CO)O[C@@H]5CO)O[C@@H]4CO)O[C@@H]3CO [CD, alpha-cyclodextrin]
- restoration of antigen:antibody binding ([1]; 1% (w/v) and 2% (w/v) alpha-CD, standards in 1% DTAB): restored binding to a limited degree
- restoration of antigen:antibody binding ([1]; 2.5% (w/v) alpha-CD, standards in 1% DTAB): optimal results
- restoration of antigen:antibody binding by different sequestrants ([1]; 2.5% (w/v) sequestrant, standards in 1% DTAB): restored binding to an optimal degree
- effect on the cAMP standard curve ([1]; 2.5% alpha-CD only, no lysis reagent): little impact
- [125I]cAMP bound to SPA beads, counts per minute ([1]; 2.5% alpha-cyclodextrin only, no lysis reagent, 0.2 pmol cAMP/well): 2790 cpm
- [125I]cAMP bound to SPA beads, counts per minute ([1]; 2.5% alpha-cyclodextrin only, no lysis reagent, 0.2 pmol cAMP/well, listed as cyclodextrin): 2358 cpm
- [125I]cAMP bound to SPA beads, counts per minute ([1]; 2.5% alpha-cyclodextrin only, no lysis reagent, 0.4 pmol cAMP/well): 2485 cpm
- [125I]cAMP bound to SPA beads, counts per minute ([1]; 2.5% alpha-cyclodextrin only, no lysis reagent, 0.4 pmol cAMP/well, listed as cyclodextrin): 1979 cpm
- [125I]cAMP bound to SPA beads, counts per minute ([1]; 2.5% alpha-cyclodextrin only, no lysis reagent, 0.8 pmol cAMP/well): 1979 cpm
- [125I]cAMP bound to SPA beads, counts per minute ([1]; 2.5% alpha-cyclodextrin only, no lysis reagent, 0.8 pmol cAMP/well, listed as cyclodextrin): 1682 cpm
- [125I]cAMP bound to SPA beads, counts per minute ([1]; 2.5% alpha-cyclodextrin only, no lysis reagent, 1.6 pmol cAMP/well): 1503 cpm
- [125I]cAMP bound to SPA beads, counts per minute ([1]; 2.5% alpha-cyclodextrin only, no lysis reagent, 1.6 pmol cAMP/well, listed as cyclodextrin): 1499 cpm
- [125I]cAMP bound to SPA beads, counts per minute ([1]; 2.5% alpha-cyclodextrin only, no lysis reagent, 3.2 pmol cAMP/well): 1058 cpm
- [125I]cAMP bound to SPA beads, counts per minute ([1]; 2.5% alpha-cyclodextrin only, no lysis reagent, 3.2 pmol cAMP/well, listed as cyclodextrin): 1143 cpm
- [125I]cAMP bound to SPA beads, counts per minute ([1]; 2.5% alpha-cyclodextrin only, no lysis reagent, 6.4 pmol cAMP/well): 674 cpm
- [125I]cAMP bound to SPA beads, counts per minute ([1]; 2.5% alpha-cyclodextrin only, no lysis reagent, 6.4 pmol cAMP/well, listed as cyclodextrin): 754 cpm
- [125I]cAMP bound to SPA beads, counts per minute ([1]; 2.5% alpha-cyclodextrin only, no lysis reagent, 12.8 pmol cAMP/well): 415 cpm
- [125I]cAMP bound to SPA beads, counts per minute ([1]; 2.5% alpha-cyclodextrin only, no lysis reagent, 12.8 pmol cAMP/well, listed as cyclodextrin): 383 cpm
- [125I]cAMP bound to SPA beads, counts per minute ([1]; 2.5% alpha-cyclodextrin only, no lysis reagent, NSB (no specific antisera)): 155 cpm
- [125I]cAMP bound to SPA beads, counts per minute ([1]; 2.5% alpha-cyclodextrin only, no lysis reagent, NSB (no specific antisera), listed as cyclodextrin): 199 cpm
- [125I]cAMP bound to SPA beads, counts per minute ([1]; 2.5% alpha-cyclodextrin only, no lysis reagent, Zero standard): 3300 cpm
- [125I]cAMP bound to SPA beads, counts per minute ([1]; 2.5% alpha-cyclodextrin only, no lysis reagent, Zero standard, listed as cyclodextrin): 3145 cpm
- restoration of antigen:antibody binding ([1]; 5% (w/v) alpha-CD, standards in 1% DTAB): inhibitory

SMILES: CCCCCCCCCCCC[N+](C)(C)C.[Br-] [DTAB, dodecyl trimethyl ammonium bromide]
- [125I]cAMP bound to SPA beads, counts per minute ([1]; 1% lysis reagent, no sequestrant, 0.2 pmol cAMP/well): 1118 cpm and 1575 cpm
- [125I]cAMP bound to SPA beads, counts per minute ([1]; 1% lysis reagent, no sequestrant, 0.4 pmol cAMP/well): 1098 cpm and 1573 cpm
- [125I]cAMP bound to SPA beads, counts per minute ([1]; 1% lysis reagent, no sequestrant, 0.8 pmol cAMP/well): 1088 cpm and 1305 cpm
- [125I]cAMP bound to SPA beads, counts per minute ([1]; 1% lysis reagent, no sequestrant, 1.6 pmol cAMP/well): 977 cpm and 1097 cpm
- [125I]cAMP bound to SPA beads, counts per minute ([1]; 1% lysis reagent, no sequestrant, 3.2 pmol cAMP/well): 860 cpm and 813 cpm
- [125I]cAMP bound to SPA beads, counts per minute ([1]; 1% lysis reagent, no sequestrant, 6.4 pmol cAMP/well): 649 cpm and 619 cpm
- [125I]cAMP bound to SPA beads, counts per minute ([1]; 1% lysis reagent, no sequestrant, 12.8 pmol cAMP/well): 440 cpm and 439 cpm
- [125I]cAMP bound to SPA beads, counts per minute ([1]; 1% lysis reagent, no sequestrant, NSB (no specific antisera)): 130 cpm and 182 cpm
- [125I]cAMP bound to SPA beads, counts per minute ([1]; 1% lysis reagent, no sequestrant, Zero standard): 1429 cpm and 1586 cpm
- [125I]cAMP bound to SPA beads, counts per minute ([1]; 1.5% lysis reagent only, 0.2 pmol cAMP/well): 799 cpm
- [125I]cAMP bound to SPA beads, counts per minute ([1]; 1.5% lysis reagent only, 0.4 pmol cAMP/well): 713 cpm
- [125I]cAMP bound to SPA beads, counts per minute ([1]; 1.5% lysis reagent only, 0.8 pmol cAMP/well): 688 cpm
- [125I]cAMP bound to SPA beads, counts per minute ([1]; 1.5% lysis reagent only, 1.6 pmol cAMP/well): 513 cpm
- [125I]cAMP bound to SPA beads, counts per minute ([1]; 1.5% lysis reagent only, 3.2 pmol cAMP/well): 426 cpm
- [125I]cAMP bound to SPA beads, counts per minute ([1]; 1.5% lysis reagent only, 6.4 pmol cAMP/well): 376 cpm
- [125I]cAMP bound to SPA beads, counts per minute ([1]; 1.5% lysis reagent only, 12.8 pmol cAMP/well): 264 cpm
- [125I]cAMP bound to SPA beads, counts per minute ([1]; 1.5% lysis reagent only, NSB (no specific antisera)): 237 cpm
- [125I]cAMP bound to SPA beads, counts per minute ([1]; 1.5% lysis reagent only, Zero standard): 819 cpm
- [125I]cAMP bound to SPA beads, counts per minute ([1]; 2% lysis reagent, no sequestrant, 0.2 pmol cAMP/well): 231 cpm and 198 cpm
- [125I]cAMP bound to SPA beads, counts per minute ([1]; 2% lysis reagent, no sequestrant, 0.4 pmol cAMP/well): 231 cpm and 216 cpm
- [125I]cAMP bound to SPA beads, counts per minute ([1]; 2% lysis reagent, no sequestrant, 0.8 pmol cAMP/well): 201 cpm
- [125I]cAMP bound to SPA beads, counts per minute ([1]; 2% lysis reagent, no sequestrant, 1.6 pmol cAMP/well): 195 cpm and 179 cpm
- [125I]cAMP bound to SPA beads, counts per minute ([1]; 2% lysis reagent, no sequestrant, 3.2 pmol cAMP/well): 179 cpm and 176 cpm
- [125I]cAMP bound to SPA beads, counts per minute ([1]; 2% lysis reagent, no sequestrant, 6.4 pmol cAMP/well): 170 cpm and 144 cpm
- [125I]cAMP bound to SPA beads, counts per minute ([1]; 2% lysis reagent, no sequestrant, 12.8 pmol cAMP/well): 93 cpm and 78 cpm
- [125I]cAMP bound to SPA beads, counts per minute ([1]; 2% lysis reagent, no sequestrant, NSB (no specific antisera)): 145 cpm and 138 cpm
- [125I]cAMP bound to SPA beads, counts per minute ([1]; 2% lysis reagent, no sequestrant, Zero standard): 272 cpm and 217 cpm
- binding of [3H]IP3 to the receptor preparation ([2]; no sequestrant): total inhibition of binding
